# In patent US20250144067A1, “PERSONALIZED STARVATION THERAPY FOR CANCER” (Faeth Therapeutics, Inc., priority 2021, published 2025):
# Structures can show the parent of a compound that is named as a salt.
# Key:
# [1] = test system: NCI-H292 lung cancer cells; experiment: FDA drug screening, complete media vs cholesterol-free media with simvastatin (TABLE 2); type: cell-based, human; conditions: for Cholesterol-free media + simvastatin (0.04 μM) / Complete Media: NCI-H292 cells
# [2] = test system: NCI-H292 lung cancer cells; experiment: FDA drug screening, complete media vs cholesterol-free media without statin (TABLE 1); type: cell-based, human
# [3] = FDA drug library screen, cholesterol-free media with simvastatin 0.04 μM
# [4] = FDA drug library screen, complete media
# [5] = complete media minus cholesterol-free media + simvastatin, >0 enhanced anti-cancer activity, about 0 neutral, <0 antagonist
# [6] = NCI-H292 cells, cholesterol-free media without statin, FDA drug library screen
# [7] = NCI-H292 cells, complete media, FDA drug library screen
# [8] = complete media vs cholesterol-free media + simvastatin (0.04 μM), >0 enhanced anti-cancer activity, about 0 neutral, <0 antagonist
# [9] = Complete minus Cholesterol-free, >0 enhanced anti-cancer activity, about 0 neutral, <0 antagonist
# [10] = NCI-H292 cells, cholesterol-free media without statin
# [11] = FDA library drug in cholesterol-free media with simvastatin 0.04 μM
# [12] = drug in cholesterol-free media with simvastatin 0.04 μM
# [13] = complete media vs cholesterol-free media + simvastatin (0.04 μM), […]
# [14] = cholesterol-free media with simvastatin 0.04 μM, FDA drug library screen (TABLE 2)
# [15] = complete media, FDA drug library screen (TABLE 2)
# [16] = complete media minus cholesterol-free media + simvastatin (0.04 μM), >0 enhanced anti-cancer activity, about 0 neutral, <0 antagonist
# [17] = Complete minus Cholesterol-free, greater than 0 enhanced anti-cancer activity, about 0 neutral, below 0 antagonist
# [18] = NCI-H292 cells, FDA drug library screen, cholesterol-free media without statin
# [19] = NCI-H292 cells, FDA drug library screen, complete media
SMILES,"Cholesterol-free media + simvastatin (0.04 μM) [1, 3]","Complete Media [1, 4]","Cholesterol-free [2, 6]","Complete [2, 7]","Difference [1, 8]","Difference [2, 9]","Cholesterol-free [2, 10]","Complete ([2]; NCI-H292 cells, complete media)",other results
CN(C)c1ccc(O)c2c1C[C@H]1C[C@H]3[C@H](N(C)C)C(O)=C(C(N)=O)C(=O)[C@@]3(O)C(O)=C1C2=O [Minocycline (hydrochloride)],1.589,1.958,0.8959,1.177,–,–,–,–,"Difference [1, 5]: 0.37; Difference ([2]; complete vs cholesterol-free media, >0 enhanced anti-cancer activity, about 0 neutral, <0 antagonist): 0.28"
Nc1cc(N2CCCCC2)nc(N)[n+]1OS(=O)(=O)[O-] [Minoxidil sulfate],1.144,1.047,–,–,−0.10,−0.27,1.329,1.056,–
Nc1cc(N2CCCCC2)nc(N)[n+]1[O-] [Minoxidil],–,–,–,–,−0.68,−0.20,1.202,1.002,"Cholesterol-free media + simvastatin (0.04 μM) [1, 11]: 1.841"
Nc1nc(CC(=O)Nc2ccc(CCNC[C@H](O)c3ccccc3)cc2)cs1 [Mirabegron],1.317,1.183,–,–,−0.13,–,1.131,0.7731,"Difference ([2]; complete vs cholesterol-free media, greater than 0 enhanced anti-cancer activity, about 0 neutral, below 0 antagonists): −0.36"
CCCOc1ccc(S(=O)(=O)N2CCN(CCO)CC2)cc1-c1nc2c(CCC)cn(CC)c2c(=O)[nH]1 [Mirodenafil (dihydrochloride)],0.7461,0.9273,–,–,–,−0.27,1.435,–,"Difference [1, 5]: 0.18"
CCC1=C[C@@H]2[C@H](C1)C[C@]2(CN)CC(=O)O [Mirogabalin],–,–,0.5074,1.015,–,–,–,–,"Cholesterol-free media + simvastatin (0.04 μM) [1, 12]: 1.082; Complete Media ([1]; drug in complete media): 0.8543; Difference [1, 13]: −0.23; Difference ([2]; complete vs cholesterol-free media, […]): 0.51"
CN1CCN2c3ncccc3Cc3ccccc3C2C1 (stereo not shown) [Mirtazapine],–,–,–,–,–,–,–,–,"Cholesterol-free media + simvastatin (0.04 μM) [1, 14]: 0.9802; Complete Media [1, 15]: 0.914; Difference [1, 16]: −0.07; Difference [2, 17]: −0.17; Cholesterol-free [2, 18]: 1.176; Complete [2, 19]: 1.005"
O=C(O)[C@H](CC(=O)N1C[C@H]2CCCC[C@H]2C1)Cc1ccccc1 [Mitiglinide (Calcium)],–,–,–,–,−0.26,–,–,–,"Cholesterol-free media + simvastatin (0.04 μM) [1, 12]: 1.855; Complete Media ([1]; drug in complete media): 1.594; Difference ([2]; Complete minus Cholesterol-free, greater than 0 enhanced anti-cancer activity, about 0 neutral, below 0 antagonists): −0.81; Cholesterol-free ([2]; NCI-H292 cells in cholesterol-free media without statin): 1.668; Complete ([2]; NCI-H292 cells in complete media): 0.8559"
Clc1ccc(C(c2ccccc2Cl)C(Cl)Cl)cc1 (stereo not shown) [Mitotane],–,–,–,–,−0.22,−0.20,1.108,0.9109,"Cholesterol-free media + simvastatin (0.04 μM) [1, 12]: 1.345; Complete Media ([1]; drug in complete media): 1.125"
O=C1c2c(O)ccc(O)c2C(=O)c2c(NCCNCCO)ccc(NCCNCCO)c21 [Mitoxantrone (dihydrochloride)],–,–,−0.002893,−0.002012,–,0.00,–,–,"Cholesterol-free media + simvastatin (0.04 μM) ([1]; cholesterol-free media with simvastatin 0.04 μM, cell growth value in FDA drug screen): 0.006643; Complete Media ([1]; complete media, cell growth value in FDA drug screen): 0.04976; Difference [1, 5]: 0.04"
O=C1c2c(O)ccc(O)c2C(=O)c2c(NCCNCCO)ccc(NCCNCCO)c21 [Mitoxantrone],–,–,0.007289,−0.03159,–,−0.04,–,–,"Cholesterol-free media + simvastatin (0.04 μM) [1, 14]: 0.04539; Complete Media [1, 15]: −0.01641; Difference [1, 16]: −0.06"
COc1cc2c(cc1OC)[C@@H](Cc1cc(OC)c(OC)c(OC)c1)[N+](C)(CCCOC(=O)CC/C=C/CCC(=O)OCCC[N+]1(C)CCc3cc(OC)c(OC)cc3[C@H]1Cc1cc(OC)c(OC)c(OC)c1)CC2.[Cl-].[Cl-] (stereo partly shown) [Mivacurium (dichloride)],–,–,–,–,–,–,0.9248,0.7178,"Cholesterol-free media + simvastatin (0.04 μM) [1, 11]: 1.752; Complete Media ([1]; FDA library drug in complete media): 1.463; Difference [1, 13]: −0.29; Difference ([2]; Complete minus Cholesterol-free, […]): −0.21"
CN(c1nccc(=O)[nH]1)C1CCN(c2nc3ccccc3n2Cc2ccc(F)cc2)CC1 [Mizolastine],0.9531,0.8007,–,–,−0.15,–,–,–,"Difference [2, 17]: −0.17; Cholesterol-free [2, 18]: 1.446; Complete [2, 19]: 1.273"
